# Data from PMC10707468, “Pharmacokinetics of Novel Dopamine Transporter Inhibitor CE-123 and Modafinil with a Focus on Central Nervous System Distribution” (International Journal of Molecular Sciences, 2023).
# Tests used:
# [1] = target: CYP2C9 (Homo sapiens, UniProt P11712); details: primary cell cultures of human hepatocytes; ref Robertson et al. (2000) [72]; cited from earlier work
# [2] = system: CYP1A2; details: ref Robertson et al. (2000) [72]; cited from earlier work
# [3] = target: CYP2C19 (Homo sapiens, UniProt P33261); details: in HLMs; ref Robertson et al. (2000) [72]; cited from earlier work
# [4] = system: CYP2B6; details: ref Robertson et al. (2000) [72]; cited from earlier work
# [5] = In vivo rat tissue biodistribution / neuroPK study, 4 h intravenous constant infusion; set-up: species or system Sprague-Dawley rats; details: for metabolite detection in rat samples: after 4 h iv infusion 20 mg/kg of parent
# Experimental: The results are summarized in Figure 4 and Table S2 within Supplementary Materials.
# In order to minimize the usage of animals and gain high confidence in the tissue distribution, a 4 h constant intravenous infusion study was designed based on the systemic pharmacokinetic parameters determined elsewhere. The catheters were surgically implanted a day before the PK experiment. The rats (n = 3 per compound) were then individually placed into a CMA 120 system (CMA, Solna, Sweden). […] A dose of 20 mg/kg was administered as a combination of an initial short 10 min infusion as a loading dose followed by a constant infusion up to 4 h, targeting a steady-state total plasma concentration of around 1000 ng/mL for each compound (based on the pilot study results). Blood was collected into heparinized Eppendorf tubes via a femoral artery catheter at 0 (before infusion starts) 1, 2, 3, and 4 h after the infusion started and immediately centrifuged at 10,000 rpm for 5 min at +4 °C. Plasma was then collected and kept at −20 °C. At 4 h, the rats were anesthetized via inhalation of 2.5% isoflurane (Abbot Scandinavia, Solna, Sweden), balanced with 1.5 L/min oxygen, after which the terminal blood and tissue samples were collected. […] The tissue samples (brain, spinal cord, liver, and kidney) were rapidly removed, pre-weighed into a 2 mL hard tissue homogenizing tube with mini-beads, and subsequently homogenized in 2 volumes of MQ water using a 4-Place Bead Mill Homogenizer (VWR, Stockholm, Sweden) at the maximal speed for 2 min and thereafter kept at +4 °C. The plasma and tissue homogenate samples were stored at −20 °C until LC–MS analysis.
# For all the rat plasma and CSF samples, an aliquot of 50 µL was spiked with 50 µL of 4% PA in water containing the IS solution to disrupt the drug–protein binding. For all rat tissue samples (brain, spinal cord, liver, and kidney), an aliquot of 50 µL was spiked with 50 µL ice-cold ACN containing the IS solution for protein precipitation. The samples were vortexed and spun down for 10 min (3000× g, 4 °C) and 25 µL of clear supernatant was diluted with 225 µL 0.1% FA in water to achieve 10% of ACN in the solution. SPE clean-up was performed using an Oasis PRiME HLB µElution 96-well plate, 3 mg (Waters Corporation, Vienna, Austria). The SPE cartridges were preconditioned and equilibrated with 1 × 200 µL ACN and 0.1% FA in water each. The samples were loaded onto the cartridges and washed with 2 × 200 µL 0.1% FA in water and 1 × 200 µL ACN/0.1% FA in water 10:90 (v:v). The analytes were eluted from the SPE cartridge into a collection plate with 2 × 25 µL ACN/0.1% FA in water 70:30 (v:v). All the samples were diluted with 50 µL of 0.1% FA in water and 10 µL of sample was injected onto the LC–HRMS system.
# All samples, blanks, standards, and quality control samples in the respective matrices were analyzed on a UHPLC system (Dionex UltiMate 3000 RSLC series system, Thermo Fisher Scientific, Inc., Dreieich, Germany) coupled with a high-resolution mass spectrometer (maXis HD Q-TOF, Bruker Daltonics, Bremen, Germany) equipped with a heated electrospray ionization (ESI) source. Reversed-phase chromatographic separation was performed on a Kinetex Phenyl-Hexyl column (2.6 µm, 2.1 × 50 mm, Phenomenex, Torrance, CA, USA), equipped with a precolumn (2.6 µm, Phenomenex, Torrance, CA, USA), at a flow rate of 0.4 mL/min. Eluent A was water containing 0.1% FA and eluent B ACN. A multi-step gradient was optimized as follows: the initial mobile phase composition (5% eluent B) was held constant for 1 min, followed by a linear increase to 30% eluent B until minute 1.5, to 40% eluent B until minute 5.5, and to 95% eluent B until minute 6. After a hold time of 2 min, the column was re-equilibrated for 2.5 min at the initial conditions (5% eluent B). The column compartment and the autosampler were maintained at 40 °C and at 8 °C, respectively. […]
# [6] = In vitro plasma stability assay; type: in vitro ADME; details: rat plasma, 37 °C
# Experimental: In vitro plasma stability assay was used in the scope of the validation studies. Briefly, 40 μL of blank rat plasma or blank rat plasma containing 10% DMF as an inhibitor was first pre-warmed for 5 min at 37 °C using a Thermomixer® comfort (Eppendorf, Hamburg, Germany). […] The reaction was terminated after 0, 1, 2, and 4 h, via the addition of 50 μL of ice-cold ACN containing the IS solution. The samples were centrifuged for 10 min at 3000× g at 4 °C. The supernatant of all samples was diluted with 0.1% FA in water, 1:2 (v:v), and 10 µL of the sample was injected onto the LC–HRMS system.
# [7] = In vitro metabolic stability in human liver microsomes; type: in vitro ADME; details: R-modafinil 1, 5, 10, 50 µM
# Experimental: An in vitro metabolism assay to study the phase I metabolism in the HLMs was in-house-developed. Optimization of the protocol included the test compound concentration (1, 5, 10 m and 50 µM) and extraction solvents (ACN and MeOH). […] The metabolic assay was initiated by the addition of 10 mM NADPH to the reaction solution and terminated after 0, 2.5, 5, 15, 30, 45, and 60 min via the addition of 200 µL of ice-cold MeOH containing the IS solution. The samples were than vortexed and spun for 15 min (14,000× g, 4 °C). The supernatant was collected, evaporated to dryness using the Concentrator plus (Eppendorf), and reconstituted with 100 µL of ACN/0.1% FA in water 10:90 (v:v). To ensure that the assay was performing adequately, the incubation of 1 µM diazepam at the same assay conditions as described was conducted, and the formation of its metabolites temazepam and nordazepam was monitored. A negative control included the absence of NADPH, the test compound, or HLMs during assay. […] The metabolic stability curves of the tested compounds were established by plotting the incubation time against the natural logarithm of the % parent drug remaining. The slope (k) of the linear part was utilized for the in vitro half-life (t1/2, min) as ln2/k. The V (µL/mg) was calculated as the volume of the reaction solution (100 µL) divided by the protein amount in the incubation (0.5 mg). The protein amount was predetermined by the supplier and the content was checked by using a Pierce™ BCA Protein Assay Kit (Thermo Fisher Scientific, Vienna, Austria) for each freshly opened tube. The intrinsic clearance (CLint, µL/min/mg) was calculated according to the following equation:(7) CLint=0.693/t1/2·V […]
# [8] = system: cerebEND in vitro model of the blood–brain barrier; details: cerebEND; cited from earlier work
# [9] = system: male Sprague-Dawley rats; set-up: method as in PMID 29230168, PMID 29410048, PMID 33940050; details: cited from earlier work
# CYP2C9, sequence (P11712 whole entry): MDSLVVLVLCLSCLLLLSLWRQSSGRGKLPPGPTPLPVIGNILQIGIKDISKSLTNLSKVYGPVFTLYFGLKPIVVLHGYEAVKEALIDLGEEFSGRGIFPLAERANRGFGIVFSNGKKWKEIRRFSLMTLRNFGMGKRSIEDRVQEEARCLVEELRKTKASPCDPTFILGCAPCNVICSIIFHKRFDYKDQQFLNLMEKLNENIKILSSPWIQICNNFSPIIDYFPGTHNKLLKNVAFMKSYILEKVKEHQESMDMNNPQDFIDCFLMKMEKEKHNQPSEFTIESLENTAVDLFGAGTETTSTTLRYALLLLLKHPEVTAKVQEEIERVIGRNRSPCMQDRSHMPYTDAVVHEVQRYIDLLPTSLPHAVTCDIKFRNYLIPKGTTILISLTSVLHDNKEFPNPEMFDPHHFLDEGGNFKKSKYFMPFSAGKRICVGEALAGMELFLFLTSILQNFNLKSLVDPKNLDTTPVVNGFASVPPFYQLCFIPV
# CYP2C19, sequence (P33261 whole entry): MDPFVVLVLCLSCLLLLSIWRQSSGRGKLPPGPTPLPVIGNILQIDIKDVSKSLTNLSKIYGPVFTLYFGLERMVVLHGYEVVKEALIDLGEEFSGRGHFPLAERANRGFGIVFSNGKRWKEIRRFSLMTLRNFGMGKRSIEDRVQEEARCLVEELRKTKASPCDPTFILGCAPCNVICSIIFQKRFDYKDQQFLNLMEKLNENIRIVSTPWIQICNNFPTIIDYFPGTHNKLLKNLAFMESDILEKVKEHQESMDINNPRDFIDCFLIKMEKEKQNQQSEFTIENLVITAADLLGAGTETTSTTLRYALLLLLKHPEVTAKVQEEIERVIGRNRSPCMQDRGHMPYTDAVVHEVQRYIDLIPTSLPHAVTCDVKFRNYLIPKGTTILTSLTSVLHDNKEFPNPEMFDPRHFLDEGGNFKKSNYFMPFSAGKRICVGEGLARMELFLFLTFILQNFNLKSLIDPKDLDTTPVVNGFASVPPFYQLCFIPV
compound,measurement,setting,value
"NC(=O)C[S+]([O-])C(c1ccccc1)c1ccccc1 (stereo not shown) [modafinil, 2-[(Diphenylmethyl)sulfinyl]acetamide]",CYP2C9 activity,[1],apparent suppression
same,CYP1A2 induction,[2],modestly induces
same,CYP2C19 inhibition,[3],reversible inhibition
same,CYP2B6 induction,[4],modestly induces
O=C(O)C[S+]([O-])C(c1ccccc1)c1ccccc1 (stereo not shown) [modafinic acid],metabolite detection in rat samples,[5],"detected together in the plasma, CSF, liver, and kidneys"
same,metabolite detection during plasma incubation of R-modafinil,[6],detected at the 2 and 4 h time points
same,metabolite formation during HLM incubation of R-modafinil,[7],not detected
"[O-][S+](c1cncs1)C(c1ccccc1)c1ccccc1 (stereo not shown) [CE-123, 5-[(Diphenylmethyl)sulfinyl]thiazole]",ability to cross in vitro model of the BBB,[8],could penetrate the BBB in a similar manner to diazepam
same,cognitive flexibility,"[9]; male Sprague-Dawley rats, without impulsive responding, compared to R-modafinil",enhance the cognitive flexibility
same,memory acquisition and memory retrieval,"[9]; rats, doses that did not change locomotor activity",enhance memory acquisition and memory retrieval
NC(=O)CS(=O)(=O)C(c1ccccc1)c1ccccc1 [modafinil sulfone],metabolite detection in rat samples,[5],"detected together in the plasma, CSF, liver, and kidneys"
same,detection in rat brain and spinal cord tissue,"[5]; after 4 h iv infusion of R-modafinil 20 mg/kg, S/N below LOQ",detected
same,metabolite formation during HLM incubation of R-modafinil,[7],observed at all concentrations
